Source: patent US20210228523A1, “MODULATORS OF SESTRIN-GATOR2 INTERACTION AND USES THEREOF” (Navitor Pharmaceuticals, Inc., priority 2017, published 2021)

System: Male Sprague Dawley rats
Assay: Forced swimming test (FST)
Type: in vivo, rat
Conditions: for FST time spent immobile / decrease in FST time spent immobile vs Veh / decrease in FST time spent immobile vs Sal: Example G; for decrease in FST time spent immobile vs Veh / decrease in FST time spent immobile vs Sal: p<0.05
Protocol: Study Design. Twenty (20) male rats weighing between 175 and 200 g were randomized into 3 study groups (n=6-7/group), following a 5-day acclimation period. All rats were surgically implanted with bilateral IT cannulas in the PFC 2 weeks prior to dosing. […] Thirty minutes following the intrathecal infusions, either NV-5138 vehicle (Veh-NV, 0.5% methylcellulose/0.1% Tween-80) or NV-5138 (160 mg/kg) was administered by oral gavage. Each treatment group was assessed at the designated time following oral dosing in FST 24 hrs (day 1) LMA 48 hrs (day 2) and the NSFT 72 hrs (day 3 following a 20 hr period of fasting). LMA was measured to rule out overall changes in generally locomotor activity. The study design is presented in Table 11 with timeline of surgical procedures, test article administration and behavioral tests is provided in FIG. 20
Preparation of Test Articles. Rapamycin (Cell Signaling; #9904) was prepared in a solution of 10% DMSO (Veh-R) to a final concentration of 10 μM. R or Veh-R was administered bilaterally (0.005 nmol/0.5 μL per side) into the medial PFC via IT infusion 30 min prior to treatment with NV-5138 or Veh-NV by oral gavage. NV-5138 (lot #07) was prepared by dissolving in Veh (0.5% methylcellulose/0.1% Tween-80) at a concentration of 50 mg/mL. The dosing volume based on the weight of the animal (3.2 mL/kg) was administered by oral gavage to study animals in Groups 2 and 3.
Surgical Procedure and Administration of Rapamycin. Rats were steriotactically implanted with a guide cannula (22GA) into the medial PFC (coordinates from bregma: +3.2 AP, ±1.0 ML, -3.5 DV from dura). Surgical procedures were carried out under the anesthesia of Nembutal (i.p. 55 mg/kg). Postoperative care consisted in peri-surgical administration of carprofen (5 mg/kg) and topical triple antibiotic. After a 2-week recovery period, R (0.01 nmol in 1 μL for PFC infusion) or Veh-R was delivered at the rate of 0.25 μL/min with an injection cannula (26GA) protruding 0.5 mm beyond the guide cannula 30 min before oral administration of NV-5138 or Veh-NV.
Study Design. Forty-eight (48) male rats weighing between 175 and 200 g were randomized into 6 study groups (n=8/group), following a 5-day acclimation period. A single dose of all test articles was administered on day 0 and the behavioral tests were performed 3, 7 and 10 days later. Groups 1 and 2 were dosed on day 0 with NV-5138 (160 mg/kg by oral gavage) and Ket (10 mg/kg by i.p. injection), respectively and subjected to a FST on day 3. The rats in Group 3 and 4 received a single dose of the NV-5138 vehicle (Veh) or NV-5138 (160 mg/kg), respectively, by oral gavage on day 0. The rats in Group 5 and 6 received a single dose of the Ket vehicle (Sal) or Ket (10 mg/kg), respectively, by i.p. injection on day 0. The rats in groups 3-6 were subjected to a FST on day 7 and a NSFT on day 10. All rats in groups 3-6 were fasted the night before for 20 hours the NSFT.
Study Design. Twenty-four (24) male Sprague Dawley rats weighing between 175 and 200 g were randomized into 4 study groups (n=6/group), following a 5-day acclimation period. On study day minus 1 rats were subjected to a pre-swim. Beginning on study day 0, rats in Groups 2 received a dose of Ket (10 mg/kg) on alternate days (day 0, 2, 4, and 6) each by i.p. injection. The rats in Groups 1 received a daily dose of Veh by oral gavage for 7 days (days 0 to 6). The rats in Groups 3 and 4 received a daily dose of NV-5138 (40 or 80 mg/kg) for 7 days (days 0 to 6) each by oral gavage. All rats were subjected to the FST on day 7, 24 hrs after last dosing. On day 8, 48 hrs after last dosing, the LMA of all rats was measured in an open field. Rats were then fasted for 20 hrs and subjected to the NSFT on day 9 (72 hrs post-last dose).
Preparation of Test Articles. Ket (Sigma, cat #K1884) was dissolved in Sal at a concentration of 10 mg/mL. Injection volumes (i.p) of 1 mL/kg of Ket were administered to Group 2. […]

[1] = NV-5138 160 mg/kg oral single dose, 3 days after dose
[2] = NV-5138 160 mg/kg oral single dose, 7 days after dose
[3] = Ket 10 mg/kg i.p. single dose, 3 days after dose
[4] = Ket 10 mg/kg i.p. single dose, 7 days after dose

CC(C)(C[C@H](N)C(=O)O)C(F)F [NV-5138]
FST immobility time (Example F, Veh-R IT infusion then NV-5138 160 mg/kg oral, 24 hrs after oral dosing): 144 ± 15 s
decrease in FST immobility time vs Veh-R/Veh-NV (Example F, Veh-R IT infusion then NV-5138 160 mg/kg oral, 24 hrs, p<0.0001): 46%
FST immobility time, R/NV-5138 vs Veh-R/Veh-NV (Example F, rapamycin (R, 0.01 nmol) IT infusion into PFC 30 min before NV-5138 160 mg/kg oral, 24 hrs): lack of significant effect on immobility time
FST time spent immobile [1]: 87.9 ± 9.0 s
decrease in FST time spent immobile vs Veh [1]: 39%
FST time spent immobile [2]: 96.0 ± 11.3 s
decrease in FST time spent immobile vs Veh [2]: 34%
FST (Example I, NV-5138 80 mg/kg oral daily for 7 days, day 7, 24 hrs after last dosing): Significant effects

CNC1(c2ccccc2Cl)CCCCC1=O (stereo not drawn) [Ket, ketamine, reference compound]
FST time spent immobile [3]: 95.5 ± 7.8 s
decrease in FST time spent immobile vs Sal [3]: 31%
FST time spent immobile [4]: 95.0 ± 11.1 s
decrease in FST time spent immobile vs Sal [4]: 31%
